In PubChem BioAssay AID272 (DTP/NCI, 2004):
Values joined by “and” are separate entries in the source; they are usually repeats but may differ in a detail not shown here. Identical values can stand only once. Inconclusive results are not listed.

Test system: Lewis lung carcinoma i.m., BDF1 mice, T/C %
Experiment: NCI In Vivo Anticancer Drug Screen. Data for tumor model Lewis Lung Carcinoma (intramuscular) in B6D2F1 (BDF1) mice
Outline: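 Tumour-bearing mice were dosed with compound, and either their survival or their tumour size was measured. Results were expressed relative to vehicle-treated controls as T/C.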

[1] = endpoint: mean tumor weight (est.), dose: 25.0 mg/kg/injection, schedule: Q01DX011 (ip), vehicle: saline with Tween-80, higher = larger tumour
[2] = endpoint: mean tumor weight (est.), dose: 50.0 mg/kg/injection, schedule: Q01DX011 (ip), vehicle: saline with Tween-80, higher = larger tumour
[3] = endpoint: median survival time, dose: 25.0 mg/kg/injection, schedule: Q01DX011 (ip), vehicle: saline with Tween-80, higher = longer survival
[4] = endpoint: median survival time, dose: 100.0 mg/kg/injection, schedule: Q01DX011 (ip), vehicle: saline, higher = longer survival
[5] = endpoint: mean tumor weight (est.), dose: 0.25 mg/kg/injection, schedule: Q01DX011 (ip), vehicle: saline, higher = larger tumour
[6] = endpoint: mean tumor weight (est.), dose: 0.5 mg/kg/injection, schedule: Q01DX011 (ip), vehicle: saline, higher = larger tumour
[7] = endpoint: mean tumor weight (est.), dose: 100.0 mg/kg/injection, schedule: Q01DX011 (ip), vehicle: saline with Tween-80, higher = larger tumour
[8] = endpoint: median survival time, dose: 100.0 mg/kg/injection, schedule: Q01DX011 (ip), vehicle: saline with Tween-80, higher = longer survival

COC(=O)CC(OC)c1nc(C(=O)OC)c(C)c(=O)[nH]1 (stereo not given)
T/C (endpoint: median survival time, dose: 8.0 mg/kg/injection, schedule: Q01DX009 (ip), vehicle: Klucel (hydroxypropylcellulose) (HPC), higher = longer survival): 114 % of control | T/C (endpoint: median survival time, dose: 16.0 mg/kg/injection, schedule: Q01DX009 (ip), vehicle: Klucel (hydroxypropylcellulose) (HPC), higher = longer survival): 123 % of control | T/C (endpoint: median survival time, dose: 32.0 mg/kg/injection, schedule: Q01DX009 (ip), vehicle: Klucel (hydroxypropylcellulose) (HPC), higher = longer survival): 88 % of control

O=C(O)c1[nH]c(=O)[nH]c(=O)c1F
T/C (endpoint: median survival time, dose: 0.19 mg/kg/injection, schedule: Q01DX011 (ip), vehicle: sodium bicarbonate, higher = longer survival): 100 % of control | T/C (endpoint: median survival time, dose: 0.38 mg/kg/injection, schedule: Q01DX011 (ip), vehicle: sodium bicarbonate, higher = longer survival): 111 % of control | T/C (endpoint: median survival time, dose: 0.75 mg/kg/injection, schedule: Q01DX011 (ip), vehicle: sodium bicarbonate, higher = longer survival): 92 % of control | T/C (endpoint: median survival time, dose: 1.5 mg/kg/injection, schedule: Q01DX011 (ip), vehicle: sodium bicarbonate, higher = longer survival): 100 % of control | T/C (endpoint: median survival time, dose: 2.5 mg/kg/injection, schedule: Q01DX011 (ip), vehicle: other, higher = longer survival): 105 % of control | T/C (endpoint: median survival time, dose: 3.12 mg/kg/injection, schedule: Q01DX011 (ip), vehicle: sodium bicarbonate, higher = longer survival): 101 % of control | T/C (endpoint: median tumor weight (est.), dose: 0.19 mg/kg/injection, schedule: Q01DX011 (ip), vehicle: sodium bicarbonate, higher = larger tumour): 96 % of control | T/C (endpoint: median tumor weight (est.), dose: 0.38 mg/kg/injection, schedule: Q01DX011 (ip), vehicle: sodium bicarbonate, higher = larger tumour): 85 % of control | T/C (endpoint: median tumor weight (est.), dose: 0.75 mg/kg/injection, schedule: Q01DX011 (ip), vehicle: sodium bicarbonate, higher = larger tumour): 101 % of control | T/C (endpoint: median tumor weight (est.), dose: 1.5 mg/kg/injection, schedule: Q01DX011 (ip), vehicle: sodium bicarbonate, higher = larger tumour): 108 % of control | T/C (endpoint: median tumor weight (est.), dose: 3.12 mg/kg/injection, schedule: Q01DX011 (ip), vehicle: sodium bicarbonate, higher = larger tumour): 81 % of control

O=C1C(=O)c2ccccc2C(O)=C1CC=C(Cl)Cl
T/C (endpoint: mean tumor weight (est.), dose: 6.25 mg/kg/injection, schedule: Q01DX011 (ip), vehicle: saline with Tween-80, higher = larger tumour): 93 % of control | T/C (endpoint: mean tumor weight (est.), dose: 12.5 mg/kg/injection, schedule: Q01DX011 (ip), vehicle: saline with Tween-80, higher = larger tumour): 86 % of control | T/C [1]: 61 % of control | T/C [2]: 79 % of control | T/C (endpoint: mean tumor weight, dose: 3.75 mg/kg/injection, schedule: Q01DX011 (oral), vehicle: saline, higher = larger tumour): 40 % of control | T/C (endpoint: mean tumor weight, dose: 7.5 mg/kg/injection, schedule: Q01DX011 (ip), vehicle: saline, higher = larger tumour): 54 % of control | T/C (endpoint: mean tumor weight, dose: 7.5 mg/kg/injection, schedule: Q01DX011 (oral), vehicle: saline, higher = larger tumour): 41 % of control | T/C (endpoint: mean tumor weight, dose: 10.0 mg/kg/injection, schedule: Q01DX011 (ip), vehicle: saline, higher = larger tumour): 102 % of control | T/C (endpoint: mean tumor weight, dose: 12.5 mg/kg/injection, schedule: Q01DX011 (ip), vehicle: other, higher = larger tumour): 71 % of control | T/C (endpoint: mean tumor weight, dose: 15.0 mg/kg/injection, schedule: Q01DX011 (ip), vehicle: saline, higher = larger tumour): 43 % of control | T/C (endpoint: mean tumor weight, dose: 20.0 mg/kg/injection, schedule: Q01DX011 (ip), vehicle: saline, higher = larger tumour): 91 % of control | T/C (endpoint: mean tumor weight, dose: 25.0 mg/kg/injection, schedule: Q01DX011 (ip), vehicle: other, higher = larger tumour): 88 % of control | T/C (endpoint: mean tumor weight, dose: 30.0 mg/kg/injection, schedule: Q01DX011 (ip), vehicle: saline, higher = larger tumour): 30 % of control | T/C (endpoint: mean tumor weight, dose: 40.0 mg/kg/injection, schedule: Q01DX011 (ip), vehicle: saline, higher = larger tumour): 82 % of control | T/C (endpoint: mean tumor weight, dose: 50.0 mg/kg/injection, schedule: Q01DX011 (ip), vehicle: other, higher = larger tumour): 55 % of control | T/C (endpoint: median survival time, dose: 3.75 mg/kg/injection, schedule: Q01DX011 (oral), vehicle: saline, higher = longer survival): 100 % of control | T/C (endpoint: median survival time, dose: 6.25 mg/kg/injection, schedule: Q01DX011 (ip), vehicle: saline with Tween-80, higher = longer survival): 89 % of control | T/C (endpoint: median survival time, dose: 7.5 mg/kg/injection, schedule: Q01DX011 (ip), vehicle: saline, higher = longer survival): 111 % of control | T/C (endpoint: median survival time, dose: 7.5 mg/kg/injection, schedule: Q01DX011 (oral), vehicle: saline, higher = longer survival): 101 % of control | T/C (endpoint: median survival time, dose: 12.5 mg/kg/injection, schedule: Q01DX011 (ip), vehicle: saline with Tween-80, higher = longer survival): 93 % of control | T/C (endpoint: median survival time, dose: 15.0 mg/kg/injection, schedule: Q01DX011 (ip), vehicle: saline, higher = longer survival): 113 % of control | T/C (endpoint: median survival time, dose: 20.0 mg/kg/injection, schedule: Q01DX011 (ip), vehicle: saline, higher = longer survival): 87 % of control | T/C [3]: 89 % of control | T/C (endpoint: median survival time, dose: 30.0 mg/kg/injection, schedule: Q01DX011 (ip), vehicle: saline, higher = longer survival): 108 % of control

COc1cccc2c1C(=O)c1c(O)c3c(c(O)c1C2=O)C[C@@](O)(C(=O)CO)C[C@@H]3OC1CC(N)C(O)C(C)O1 (stereo not given in full)
T/C (endpoint: median survival time, dose: 0.25 mg/kg/injection, schedule: Q01DX011 (ip), vehicle: water, higher = longer survival): 100 % of control and 120 % of control | T/C (endpoint: median survival time, dose: 0.65 mg/kg/injection, schedule: Q03HX008 (ip), vehicle: water, higher = longer survival): 100 % of control and 102 % of control | T/C (endpoint: median survival time, dose: 1.08 mg/kg/injection, schedule: Q03HX008 (ip), vehicle: water, higher = longer survival): 123 % of control | T/C (endpoint: median survival time, dose: 1.8 mg/kg/injection, schedule: Q03HX008 (ip), vehicle: water, higher = longer survival): 26 % of control | T/C (endpoint: median survival time, dose: 3.0 mg/kg/injection, schedule: Q03HX008 (ip), vehicle: water, higher = longer survival): 17 % of control

CS(=O)(=O)OCC(O)C(O)COS(C)(=O)=O (stereo not given)
T/C [4]: 100 % of control | T/C (endpoint: median survival time, dose: 400.0 mg/kg/injection, schedule: Q01DX011 (ip), vehicle: saline, higher = longer survival): 100 % of control

O=c1[nH]c2cc(Cl)ccc2c(CCl)c1Cl
T/C (endpoint: mean tumor weight, dose: 25.0 mg/kg/injection, schedule: Q01DX011 (ip), vehicle: saline, higher = larger tumour): 112 % of control | T/C (endpoint: mean tumor weight, dose: 50.0 mg/kg/injection, schedule: Q01DX011 (ip), vehicle: saline, higher = larger tumour): 101 % of control | T/C (endpoint: mean tumor weight, dose: 100.0 mg/kg/injection, schedule: Q01DX011 (ip), vehicle: saline, higher = larger tumour): 115 % of control | T/C (endpoint: median survival time, dose: 25.0 mg/kg/injection, schedule: Q01DX011 (ip), vehicle: saline, higher = longer survival): 95 % of control | T/C (endpoint: median survival time, dose: 50.0 mg/kg/injection, schedule: Q01DX011 (ip), vehicle: saline, higher = longer survival): 102 % of control | T/C [4]: 89 % of control

COc1cc([C@@H]2c3cc4c(cc3[C@@H](OC3OC5COC(C)OC5C(O)C3O)[C@H]3COC(=O)[C@H]23)OCO4)cc(OC)c1O (stereo not given in full)
T/C [5]: 72 % of control | T/C [6]: 67 % of control | T/C (endpoint: mean tumor weight (est.), dose: 1.0 mg/kg/injection, schedule: Q01DX011 (ip), vehicle: saline, higher = larger tumour): 79 % of control | T/C (endpoint: mean tumor weight (est.), dose: 2.0 mg/kg/injection, schedule: Q01DX011 (ip), vehicle: saline, higher = larger tumour): 74 % of control | T/C (endpoint: mean tumor weight (est.), dose: 4.0 mg/kg/injection, schedule: Q01DX011 (ip), vehicle: saline, higher = larger tumour): 43 % of control | T/C (endpoint: mean tumor weight (est.), dose: 5.0 mg/kg/injection, schedule: Q01DX011 (ip), vehicle: saline, higher = larger tumour): 105 % of control | T/C (endpoint: median survival time, dose: 0.25 mg/kg/injection, schedule: Q01DX011 (ip), vehicle: saline, higher = longer survival): 96 % of control | T/C (endpoint: median survival time, dose: 0.5 mg/kg/injection, schedule: Q01DX011 (ip), vehicle: saline, higher = longer survival): 98 % of control | T/C (endpoint: median survival time, dose: 1.0 mg/kg/injection, schedule: Q01DX011 (ip), vehicle: saline, higher = longer survival): 96 % of control | T/C (endpoint: median survival time, dose: 2.0 mg/kg/injection, schedule: Q01DX011 (ip), vehicle: saline, higher = longer survival): 107 % of control | T/C (endpoint: median survival time, dose: 4.0 mg/kg/injection, schedule: Q01DX011 (ip), vehicle: saline, higher = longer survival): 101 % of control

c1ccc2c(c1)ccc1c[n+]3ccccc3cc12
T/C [5]: 53 % of control | T/C [6]: 47 % of control

CC1=Nc2ccccc2/C1=C\c1c(C)[nH]c2ccccc12
T/C [1]: 52 % of control | T/C [2]: 68 % of control | T/C [7]: 29 % of control | T/C [3]: 104 % of control | T/C (endpoint: median survival time, dose: 50.0 mg/kg/injection, schedule: Q01DX011 (ip), vehicle: saline with Tween-80, higher = longer survival): 93 % of control | T/C [8]: 100 % of control

CCN1/C(=C/C(C)=C/c2sc3ccccc3[n+]2CC)Sc2ccccc21
T/C (endpoint: mean tumor weight (est.), dose: 50.0 micrograms/kg/injection, schedule: Q01DX011 (ip), vehicle: saline with Tween-80, higher = larger tumour): 88 % of control | T/C (endpoint: mean tumor weight (est.), dose: 100.0 micrograms/kg/injection, schedule: Q01DX011 (ip), vehicle: saline with Tween-80, higher = larger tumour): 74 % of control | T/C (endpoint: median survival time, dose: 50.0 micrograms/kg/injection, schedule: Q01DX011 (ip), vehicle: saline with Tween-80, higher = longer survival): 91 % of control | T/C (endpoint: median survival time, dose: 100.0 micrograms/kg/injection, schedule: Q01DX011 (ip), vehicle: saline with Tween-80, higher = longer survival): 87 % of control

CC(=N/NC(N)=S)/C(C)=N/NC(N)=S
T/C [7]: 73 % of control | T/C (endpoint: mean tumor weight (est.), dose: 200.0 mg/kg/injection, schedule: Q01DX011 (ip), vehicle: saline with Tween-80, higher = larger tumour): 65 % of control | T/C (endpoint: mean tumor weight (est.), dose: 400.0 mg/kg/injection, schedule: Q01DX011 (ip), vehicle: saline with Tween-80, higher = larger tumour): 42 % of control | T/C [8]: 93 % of control | T/C (endpoint: median survival time, dose: 200.0 mg/kg/injection, schedule: Q01DX011 (ip), vehicle: saline with Tween-80, higher = longer survival): 91 % of control | T/C (endpoint: median survival time, dose: 400.0 mg/kg/injection, schedule: Q01DX011 (ip), vehicle: saline with Tween-80, higher = longer survival): 91 % of control
